Reference: patent US20100069297A1, “Selective Inhibition of TLR4 Signaling” (priority 2005, published 2010)

Legend:
Type in all cases: cell-based, mouse
[1] = test system: TLR2 signaling (Pam3Cys-induced IL-1β mRNA); experiment: Pam3Cys-induced cytokine mRNA expression, real-time PCR; conditions: 40 μM, Pam3Cys
Method: (§1) FIG. 4. Comparative effect of BPs on TLR2-vs. TLR4-mediated activation of MAPKs (A) and IL-1β mRNA expression (B). For Western blot analysis, 4.5 x10^6 primary macrophages were preincubated without or with 40 μM BP and stimulated for 30 min with LPS (10 ng/ml) or Pam3Cys (P3C; 150 ng/ml). The results shown are a representative blot of three separate experiments. Experimental details for FIG. 4B are the same as reported in the legend to FIG. 1A.
(§2) Total cellular RNA was extracted from macrophage cultures as described elsewhere and reversed transcribed using AMV Reverse Transcriptase (Promega, Madison, Wis.) and poly-T priming as recommended by the manufacturer. The resulting cDNA was quantified by real time PCR using SYBR Green PCR Master Mix (Applied Biosystems) and ABI Prism 7900HT cycler. Primers for detection of IL-1β, IFN-β, MIP-1β, […]RANTES, and HPRT mRNAs were designed using the Primer Express 2.0 program (Applied Biosystems). Relative gene expression was calculated using ΔCt method with HPRT as a housekeeping gene (1.8̂(CtHPRT−CtGene)) Statistical analysis was performed by one way ANOVA with repeated measures, followed by Dunnett's multiple comparison post hoc test with p≦0.05 chosen as the level of significance.
Similar to their effect on activation of MAPKs, BPs were much weaker inhibitors with respect to Pam3Cys- vs. LPS-induced expression of IL-1β mRNA.

[2] = test system: TLR4 signaling (LPS-induced STAT-1 phosphorylation); experiment: LPS-induced phosphorylation of STAT-1, Western blot; conditions: 40 μM BP
Method: (§3) FIG. 2. Effect of blocking peptides on the LPS-stimulated activation of MAPKs and Tyr701 STAT-1. Ten μg of total protein was loaded per lane. A representative blot of three separate experiments is shown. Other details are given in the Materials and Methods section and legend for FIG. 1.
(§4) SDS-PAGE and Western blot analysis were performed as described previously (Medvedev et al., 2001, J. Immunol. 167, 2257) with minor modifications. Antibodies for detection of activated MAPKs (pERK, pJNK and pP38) were purchased from Cell Signaling Technology (Beverly, Mass.). IRF-1 was detected using a rabbit polyclonal antibody from Santa-Cruz (Santa Cruz, Calif.). Antibody for detection of tyrosine-701 phosphorylated STAT1 was purchased from Zymed Laboratories (San Francisco, Calif.).

[3] = test system: TLR4 signaling (LPS-induced IL-1β, MIP-1β, IFN-β, RANTES mRNA); experiment: LPS-induced gene expression in primary murine macrophages, real-time PCR
Method: FIG. 1. Effect of blocking peptides on the cytokine induction by LPS. Thioglycollate-elicited primary murine macrophages were preincubated in the presence of 40 μMof BP for one hour before stimulation with 10 ng/ml of LPS. (A) Quantitative real-time PCR analysis of gene expression. (B) Secretion of IL-1β and IL-6. Concentration of the cytokines was measured after overnight incubation of the cells in the presence of LPS and the peptides. (C) Sensitivity of the LPS-stimulated expression of IFN-β and IL-1β mRNA to varying concentrations of TRAM and MyD88 BP. Total mRNA was isolated 1 hour after LPS stimulation (A and C). *p<0.05; **p<0.01.
FIG. 6. Effect of mutant TRAM BB loop peptides on LPS-induced activation of IL1-β and IFN-β mRNA. Details of the experiments are as described in the legend for FIG. 1, except for the cells were preincubated with peptides only for 30 minutes.
C3H/OuJ mice were purchased from the Jackson Laboratory (Bar Harbor, Me.). Thioglycollate-elicited peritoneal macrophages were harvested and cultured in the presence of E. coli K235 LPS or Pam3Cys as described previously (Salkowski et al., 1999, J. Immunol. 164, 1529).
as §2
Mice with targeted mutations in MyD88 (Kawai et al., 2001, supra; Toshchakov et al., 2002, supra) or TIRAP (Yamamoto et al., 2002, Nature 420, 324) retain the capacity to signal through the MyD88-independent pathway. […] Therefore, the first question we sought to address experimentally is whether interactions of the BB-loops of the TIR domains of these adapters affect protein interactions leading to gene expression. To this end, we designed cell permeable peptides whose sequences correspond to the BB-loops of each adapter molecule and measured the ability of each BP to interfere with the induction of immediate response genes induced via MyD88-dependent and independent pathways. […] All BB-loop-containing peptides exerted an inhibitory effect on LPS-induced expression of MyD88-dependent IL-1β and […], as well as MyD88-independent IFN-β and RANTES mRNA, as measured by real-time PCR (FIG. 1A).

[4] = test system: TLR4 signaling (IRF-1 protein); experiment: LPS-induced upregulation of IRF-1 protein, SDS-PAGE/Western; conditions: 100 ng/ml LPS, 1.5 h
Method: (§5) FIG. 3. Effect of blocking peptides on activation of IRF-3 and IRF-1. […] Primary mouse macrophages were stimulated with 100 ng/ml of LPS. Seventeen μg of total protein was loaded per lane of the native gel. Other details are as described in the legend for FIG. 1.
as §4
Importantly, MyD88 knockout macrophages are capable of inducing IRF-1 mRNA (Yamamoto et al., 2003, supra).

[5] = test system: TLR4 signaling (LPS-induced phosphorylation of ERK, JNK, p38); experiment: LPS-stimulated activation of MAPKs (pERK, pJNK, pP38), Western blot; conditions: 40 μM, 1 h preincubation, LPS 10 ng/ml
Method: as §3, §1
FIG. 5. Effect of mutated TRAM BB loop peptides on LPS-induced activation of ERK. Details of the experiment are as in legend for FIG. 4, except for the cells were preincubated with peptides only for 30 minutes.
as §4
Using antibodies specific for the phosphorylated (activated) forms of JNK, ERK, and p38, we next sought to examine the effect of BB-loop-containing inhibitory peptides on LPS-stimulated activation of MAPKs. LPS induces quick and transient activation of MAPKs in primary macrophages (FIG. 2A) that was not affected by the addition of CP. […] The TIRAP BP was the weakest BP; all MAPKs were activated in the presence of it, although to a lesser extent when compared to CP.

[6] = test system: TLR4 signaling (IRF-3 dimerization); experiment: LPS-induced dimerization of IRF-3, native PAGE; conditions: 100 ng/ml LPS, 1.5 hr
Method: as §5
Native PAGE for detection of IRF-3 activation was performed with minor modifications (Iwamura et al., 2001, Genes Cells 6, 375). One×10^7 thioglycollate-elicited cells were plated into a 6 cm dish and washed with PBS to remove non-adherent cells. Primary macrophages were stimulated with 100 ng/ml of LPS for 1.5 hr and lysed in buffer containing 50 mM TRIS-HCl pH 7.5, 150 mM NaCl, 1 mM EDTA, 1% NP-40, 1 mM sodium orthovanadate and 1× Complete protease inhibitor cocktail (Roche, Mannheim, Germany). Lysates were mixed with native lysis buffer (Bio-Rad, Hercules, Calif.) supplemented with 1% deoxycholate. Fifteen to 20 μg protein per lane was electrophoresed on a non-reducing gel and immunoblotted. IRF-3 dimers and monomers were detected using rabbit anti-IRF-3 antibody (Zymed Laboratories) by Western analysis.
Interferon Regulatory Factors (IRFs) were first identified as important transcriptional mediators of the antiviral immune response (reviewed in Taniguchi et al., 2001, Annu. Rev. Immunol. 19, 623). Later, it was recognized that this family of transcription factors plays an essential role in signal transduction mediated by different TLRs. IRF-1 is regulated transcriptionally by signaling from different TLRs, as well as by cytokines induced by TLR engagement (e.g., IL-1, TNF, and IFN-β) (Fujita et al., 1989, Proc. Natl. Acad. Sci. USA 86, 9936). In contrast, IRF-3 is constitutively expressed in many cell types (Au et al., 1995, Proc. Natl. Acad. Sci. USA 92, 11675). Upon stimulation through TLR4 or TLR3, IRF-3 is phosphorylated at multiple sites in its C-terminus, and this modification enables it to dimerize and translocate to the nucleus where it targets IRF-3-responsive genes (Kawai et al., 2001, supra; Lin et al., 1999, Mol. Cell. Biol. 19, 2465).

RQIKIWFQNRRMKWKKVSDRDVLPGTCVWS (MyD88 blocking peptide) [MyD88-BP]
IL-1β gene expression in Pam3Cys-stimulated cells, of control levels [1]: approximately 25%
effect on Pam3Cys-induced expression of IL-1β mRNA [1]: statistically significant inhibitory effect
inhibition of LPS-induced Tyr701 phosphorylation of STAT-1 [2]: highly effective
inhibitory effect on LPS-induced expression of IL-1β, MIP-1β, IFN-β and RANTES mRNA ([3]; 40 μM BP, 1 h preincubation, 10 ng/ml LPS, mRNA 1 h after LPS): comparable or only slightly less inhibitory
IL-1β mRNA expression in LPS-stimulated cells, of the level detected in the presence of the CP ([3]; 40 μM, LPS 10 ng/ml): < 5%
effect on LPS-induced upregulation of IRF-1 protein [4]: strongest inhibitors
effect on LPS-induced activation (phosphorylation) of MAPKs (ERK, JNK) [5]: strongly blocked
inhibition of LPS-induced dimerization of IRF-3 [6]: significantly inhibited
